From patent publication US20240390357A1, “PYRIDINES AND THEIR USE IN TREATMENT OF GBA-RELATED DISEASES” (ZEVRA DENMARK A/S, priority 2021, published 2024)
Marks after values point to notes of the source that are not given here.

Target: T1, GBA (glucosylceramidase, GCase), L444P GBA mutation (Homo sapiens, UniProt P04062, L483P)
T1 construct: Human fibroblast cell line GM10915 harboring the L444P GBA mutation was obtained from Coriell Biorepositories; host or cells: GM10915 human fibroblasts
T1 sequence (P04062 40-536 L483P): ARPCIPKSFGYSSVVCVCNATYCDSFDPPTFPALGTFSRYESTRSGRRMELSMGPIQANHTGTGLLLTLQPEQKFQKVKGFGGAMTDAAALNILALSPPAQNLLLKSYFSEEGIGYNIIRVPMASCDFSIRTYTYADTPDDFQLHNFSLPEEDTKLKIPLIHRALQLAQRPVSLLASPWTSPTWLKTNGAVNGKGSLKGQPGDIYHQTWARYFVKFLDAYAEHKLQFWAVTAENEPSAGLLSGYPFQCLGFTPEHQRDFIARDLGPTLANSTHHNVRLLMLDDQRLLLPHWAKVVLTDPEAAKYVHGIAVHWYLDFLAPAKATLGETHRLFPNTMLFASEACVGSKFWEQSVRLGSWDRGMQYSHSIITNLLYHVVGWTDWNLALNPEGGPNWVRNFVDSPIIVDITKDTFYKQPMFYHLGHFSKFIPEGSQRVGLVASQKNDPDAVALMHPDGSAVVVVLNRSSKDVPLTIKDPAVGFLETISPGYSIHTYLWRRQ
Assay: GCase activity assay (4-MUG) in GM10915 fibroblasts, normalised to crystal violet staining
Type: cell-based
Details: five days exposure; for GBA EC1.5: concentration where Percent GCase activity = 150% (1.5-fold induction), human fibroblast cell line GM10915 (L444P GBA), 8-point dose range; for Emax / GBA Emax: maximum Percent GCase activity in the dose range tested, relative to basal activity of untreated cells, GM10915 (L444P GBA)
Description: Human fibroblast cell line GM10915 harboring the L444P GBA mutation was obtained from Coriell Biorepositories.
The GM10915 cell line was cultured under standard cell culture conditions (37° C. and 5% CO2) in complete DMEM medium supplemented with nonessential amino acids (NEAA), 1% Pen-Strep and 12% FCS. Cells were seeded at a density of 10^4 cells/well in 100 μL complete medium in one black 96-well plate for glucosylceramidase (GCase) activity measurement and in one clear 96-well plate for crystal violet staining to correct for cell density. Crystal violet staining is performed to obtain quantitative information about the relative density of cells adhering to multi-wells plates.
The assay was adapted from Sawkar et al (2002) and briefly described in the following. The day after seeding of cells, the medium was replaced with fresh medium containing the compounds to be tested. Compounds were tested in duplicate and in an 8-point diluted dose range to obtain a dose response. Cells were exposed with compounds for five days. Fresh compound was added every 2-3 days. PBS was included to define the basal level of GCase activity.
Cells were washed three times with 200 μL PBS per well and 50 μL of 2.5 mM 4-MUG buffer (4-MUG dissolved in 0.2 M acetate buffer pH 4.0) was added and the cells were incubated at 37° C., 5% CO2 for 23 hours. The reaction was stopped by adding 150 μL 0.2 M glycine buffer (pH 10.8). Fluorescence was measured with a Varioskan® Flash reader (Thermo Scientific) at an excitation/emission setting of 365/445 nm.
Cells were treated with compounds in a parallel setup identical to the setup to test for GCase activity. At the end of compound treatment, cells were washed once with 200 μL PBS per well and 50 μL 0.1% w/v crystal violet (in H20) was added. Following 10 min. of incubation, the crystal violet solution was removed, and the cells were washed three times with 200 μL PBS and 100 μL 1% SDS was added to solubilize the stain.
The plate was agitated on an orbital shaker for 10-30 min. Absorbance (A) is measured at […] using a Varioskan® Flash reader (Thermo Scientific).
The fluorescence signal (F) derived from the GCase measurement is normalized to the absorbance signal (A) derived from the crystal violet staining. The percent GCase activity resulting from compound treatment is calculated relative to the basal activity obtained from untreated cells.
Maximal effect of compounds (E max) is determined from the dose response effects as the maximum “Percent GCase activity” achieved in the dose range tested.

Cc1cc(CN2CCCCC2)cnc1C1CCN(C)CC1 [compound 777]
GBA EC1.5: 6.9 µM
Emax: 200%

CN1CCCC(c2ccc(CN3CCCCC3)cn2)C1 (stereo not shown) [compound 810]
GBA EC1.5: 4.9 µM
Emax: 199%

c1cc(C2CCNCC2)ncc1CN1CCCCC1 [compound 759]
GBA EC1.5: 6.6 µM
Emax: 200%

CN1CCC(c2cccc(CN3CCCCC3)n2)C1 (stereo not shown) [compound 798]
GBA EC1.5: 2.5 µM
Emax: 250%

c1cc(C2CCNCC2)nnc1CN1CCCCC1 [compound 855]
GBA EC1.5: 43.3 µM
Emax: 163%

c1cc(CN2CCCCC2)nc(C2CCNCC2)n1 [compound 638]
GBA EC1.5: 4.1 µM
Emax: 263%

c1cc2c(CN3CCCCC3)c[nH]c2nc1C1CCCNC1 (stereo not shown) [compound 833]
GBA EC1.5: 12.1 µM
Emax: 203%

Cc1cc(C2CCCN(C)C2)nc(CN2CCCCC2)n1 (stereo not shown) [compound 738]
GBA EC1.5: 5.4 µM
Emax: 248%

c1cc(CN2CCCCC2)nc(C2CCCNC2)c1 (stereo not shown) [compound 791]
GBA EC1.5: 4.4 µM
Emax: 165%

c1cc(C2CCCNC2)ncc1CN1CCCCC1 (stereo not shown) [compound 811]
GBA EC1.5: 3.4 µM
Emax: 263%

c1cc(CN2CCCCC2)ncc1C1CCNC1 (stereo not shown) [compound 808]
GBA EC1.5: 28.6 µM
Emax: 175%

CN1CCCC(c2cc(CN3CCCCC3)ncn2)C1 (stereo not shown) [compound 802]
GBA EC1.5: 8.8 µM
Emax: 256%

Cc1cc(CN2CCCCC2)cc(C2CCN(C)CC2)n1 [compound 795]
GBA EC1.5: 7.0 µM
Emax: 185%

c1nc(C2CCNCC2)sc1CN1CCCCC1 [compound 620]
GBA EC1.5: 3.5 µM
Emax: 236%

CN1CCC(c2cnc(CN3CCCCC3)cn2)CC1 [compound 774]
GBA EC1.5: 9.7 µM
Emax: 198%

CC(c1cncc(C2CCCNC2)c1)N1CCCCC1 (stereo not shown) [compound 761]
GBA EC1.5: 5.2 µM
Emax: 205%

c1cc2ncc(CN3CCCCC3)n2cc1C1CCNCC1 [compound 853]
GBA EC1.5: 8.0 µM
Emax: 193%

Cc1cc(CN2CCCCC2)cnc1C1CCNCC1 [compound 760]
GBA EC1.5: 4.3 µM
Emax: 211%

c1cn(C2CCNCC2)nc1CN1CCCCC1 [compound 624]
GBA EC1.5: 21 µM
Emax: 189%

c1c(C2CCNCC2)noc1CN1CCCCC1 [compound 586]
GBA EC1.5: 7.5 µM
Emax: 234%

c1cc(CN2CCCCC2)ncc1C1CCCNC1 (stereo not shown) [compound 757]
GBA EC1.5: 4.2 µM
Emax: 214%

c1ncc(C2CCNC2)cc1CN1CCCCC1 (stereo not shown) [compound 769]
GBA EC1.5: 18.9 µM
Emax: 205%

Cc1cc(CN2CCCCC2)nc(C2CCCNC2)c1 (stereo not shown) [compound 732]
GBA EC1.5: 3.2 µM
Emax: 200%

Cc1ccc(CN2CCCCC2)nc1C1CCNCC1 [compound 778]
GBA EC1.5: 7.4 µM
Emax: 152%

COc1ncc(C2CCNC2)cc1CN1CCCCC1 (stereo not shown) [compound 803]
GBA EC1.5: 6.0 µM
Emax: 203%

CC(c1cncc(C2CCNCC2)c1)N1CCCCC1 (stereo not shown) [compound 772]
GBA EC1.5: 18.5 µM
Emax: 211%

Fc1cc(C2CCNCC2)cnc1CN1CCCCC1 [compound 880]
GBA EC1.5: 4.3 µM
Emax: 237%

Nc1c(Br)cc(Br)cc1CN[C@H]1CC[C@H](O)CC1 [Ambroxol, reference compound]
GBA EC1.5: >20* *The 1.5-fold induction criteria was not reached within the tested concentration range μM

c1cc(CN2CCCCC2)nc(C2CCNCC2)c1 [compound 788]
GBA EC1.5: 8.0 µM
Emax: 278%

CN1CCC(c2cccc(CN3CCCCC3)n2)CC1 [compound 794]
GBA EC1.5: 3.0 µM
Emax: 269%

C1=C(c2ccc(CN3CCCCC3)cn2)CNC1 [compound 666]
GBA EC1.5: 9.2 µM
Emax: 253%

Cc1cc(CN2CCCCC2)cc(C2CCNCC2)n1 [compound 764]
GBA EC1.5: 3.3 µM
Emax: 227%

c1nc2cc(CN3CCCCC3)oc2cc1C1CCNCC1 [compound 868]
GBA EC1.5: 6.5 µM
Emax: 204%

c1cn2cc(CN3CCCCC3)nc2cc1C1CCNCC1 [compound 854]
GBA EC1.5: 9.4 µM
Emax: 194%

CN1CCC(c2cc(CN3CCCCC3)ncn2)CC1 [compound 784]
GBA EC1.5: 6.5 µM
Emax: 155%

c1cc(CN2CCCCC2)nc(C2CCNC2)c1 (stereo not shown) [compound 793]
GBA EC1.5: 29.2 µM
Emax: 165%

C1CCN(Cc2noc(C3CCCNC3)n2)CC1 (stereo not shown) [compound 614]
GBA EC1.5: 46 µM
Emax: 169%

COc1ncc(C2CCNCC2)cc1CN1CCCCC1 [compound 715]
GBA EC1.5: 24.8 µM
Emax: 160%

Cc1cc(C2CCCNC2)nc(CN2CCCCC2)n1 (stereo not shown) [compound 737]
GBA EC1.5: 21.5 µM
GBA Emax: 203%

c1nc(C2CCCNC2)cnc1CN1CCCCC1 (stereo not shown) [compound 754]
GBA EC1.5: 11.8 µM
Emax: 180%

CN1CCCC(c2cccc(CN3CCCCC3)n2)C1 (stereo not shown) [compound 796]
GBA EC1.5: 2.6 µM
Emax: 267%

COc1ncc(C2CCN(C)C2)cc1CN1CCCCC1 (stereo not shown) [compound 812]
GBA EC1.5: 6.7 µM
Emax: 255%

c1c(C2CCNC2)noc1CN1CCCCC1 (stereo not shown) [compound 654]
GBA EC1.5: 4.9 µM
Emax: 381%

c1nc2cnc(C3CCNCC3)cn2c1CN1CCCCC1 [compound 841]
GBA EC1.5: 35.9 µM
Emax: 181%

Cn1nc(C2CCCNC2)cc1CN1CCCCC1 (stereo not shown) [compound 708]
GBA EC1.5: 16 µM
Emax: 205%

c1nc(C2CCNCC2)cnc1CN1CCCCC1 [compound 753]
GBA EC1.5: 19.1 µM
Emax: 190%

Cc1cc(C2CCNCC2)nc(CN2CCCCC2)n1 [compound 739]
GBA EC1.5: 30.8 µM
Emax: 176%

COc1ncc(C2CCN(C)CC2)cc1CN1CCCCC1 [compound 735]
GBA EC1.5: 2.3 µM
Emax: 212%

CN1CCCC(c2cnc(CN3CCCCC3)cn2)C1 (stereo not shown) [compound 773]
GBA EC1.5: 3.9 µM
Emax: 236%

CN1CCCC(c2ccc(CN3CCCCC3)nc2)C1 (stereo not shown) [compound 776]
GBA EC1.5: 4.3 µM
Emax: 200%

c1nc(CN2CCCCC2)cc(C2CCNC2)n1 (stereo not shown) [compound 832]
GBA EC1.5: 18.0 µM
Emax: 175%

Cc1cc(C2CCCNC2)nc(CN2CCCCC2)n1 (stereo not shown) [compound 730]
GBA EC1.5: 5.0 µM
GBA Emax: 234%

COc1ncc(C2CCCNC2)cc1CN1CCCCC1 (stereo not shown) [compound 729]
GBA EC1.5: 2.7 µM
Emax: 223%

Cc1cc(CN2CCCCC2)cnc1C1CCCNC1 (stereo not shown) [compound 758]
GBA EC1.5: 3.1 µM
Emax: 233%

c1cc(CN2CCCCC2)cc(C2CCNCC2)n1 [compound 540]
GBA EC1.5: 5.4 µM
Emax: 177%

CN1CCCC(c2cncc(CN3CCCCC3)c2)C1 (stereo not shown) [compound 736]
GBA EC1.5: 3.7 µM
Emax: 216%

Cc1ccc(CN2CCCCC2)nc1C1CCN(C)CC1 [compound 801]
GBA EC1.5: 3.9 µM
Emax: 173%

Fc1c(CN2CCCCC2)ccnc1C1CCNCC1 [compound 846]
GBA EC1.5: 2.8 µM
Emax: 245%

CCCCCO[C@H]1CC[C@H](NC(=O)c2cnn3c(C)cc(C)nc23)CC1 [LTI-291, reference compound]
GBA EC1.5: 112 µM

c1cc(CN2CCCCC2)ncc1C1CCNCC1 [compound 775]
GBA EC1.5: 24.5 µM
Emax: 186%
